Measurements reported in ChEMBL document CHEMBL4680187, “Optimization of EphA2 antagonists based on a lithocholic acid core led to the identification of UniPR505, a new 3α-carbamoyloxy derivative with antiangiogenetic properties” (Eur J Med Chem, 2020).
Calls of active or inactive are those of the source. The rule behind the calls is not given here.

Assays:
Ephrin type-A receptor 5 = Ephrin type-A receptor 5 (Rattus norvegicus, UniProt P54757); test: Displacement of biotinylated ephrin-A1-Fc from rat EphA5 Fc preincubated for 1 hr followed by ephrin-A1-FC addition and measured after 4 hrs by ELISA
Ephrin type-B receptor 2 = biological target: T1, Ephrin type-B receptor 2 (Mus musculus, UniProt P54763); test: Displacement of biotinylated ephrin-B1-Fc from mouse EphB2 Fc preincubated for 1 hr followed by ephrin-B1-FC addition and measured after 4 hrs by ELISA
T1 sequence (P54763 whole entry): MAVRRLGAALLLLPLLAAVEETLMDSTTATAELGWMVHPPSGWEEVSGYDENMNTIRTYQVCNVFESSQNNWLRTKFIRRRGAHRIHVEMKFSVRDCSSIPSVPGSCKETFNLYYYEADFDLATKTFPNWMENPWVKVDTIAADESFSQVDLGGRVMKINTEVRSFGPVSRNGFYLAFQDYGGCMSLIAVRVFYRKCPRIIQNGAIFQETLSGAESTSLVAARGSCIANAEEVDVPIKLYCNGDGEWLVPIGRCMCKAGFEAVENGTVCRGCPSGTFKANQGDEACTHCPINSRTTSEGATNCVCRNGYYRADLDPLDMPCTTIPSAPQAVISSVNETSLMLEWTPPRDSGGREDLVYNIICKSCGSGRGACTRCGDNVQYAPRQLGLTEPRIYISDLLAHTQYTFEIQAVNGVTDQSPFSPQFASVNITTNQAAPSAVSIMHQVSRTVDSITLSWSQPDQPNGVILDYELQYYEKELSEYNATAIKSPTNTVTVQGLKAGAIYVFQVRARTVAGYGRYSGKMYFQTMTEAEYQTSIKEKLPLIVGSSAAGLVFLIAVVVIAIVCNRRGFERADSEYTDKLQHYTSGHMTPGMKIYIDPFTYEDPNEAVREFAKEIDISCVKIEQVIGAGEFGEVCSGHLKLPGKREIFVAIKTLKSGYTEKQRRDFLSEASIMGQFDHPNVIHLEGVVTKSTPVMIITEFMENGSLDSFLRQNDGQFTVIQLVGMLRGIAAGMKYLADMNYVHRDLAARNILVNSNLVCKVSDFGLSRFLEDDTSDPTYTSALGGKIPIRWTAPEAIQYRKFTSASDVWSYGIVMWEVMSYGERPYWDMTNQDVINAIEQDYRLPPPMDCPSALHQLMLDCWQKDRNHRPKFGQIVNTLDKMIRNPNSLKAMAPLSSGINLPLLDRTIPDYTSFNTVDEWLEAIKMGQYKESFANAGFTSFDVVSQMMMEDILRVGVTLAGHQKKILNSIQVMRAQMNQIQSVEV

Ephrin type-B receptor 6 = biological target: T2, Ephrin type-B receptor 6 (Mus musculus, UniProt O08644); test: Displacement of biotinylated ephrin-B1-Fc from mouse EphB6 Fc preincubated for 1 hr followed by ephrin-B1-FC addition and measured after 4 hrs by ELISA
T2 sequence (O08644 whole entry): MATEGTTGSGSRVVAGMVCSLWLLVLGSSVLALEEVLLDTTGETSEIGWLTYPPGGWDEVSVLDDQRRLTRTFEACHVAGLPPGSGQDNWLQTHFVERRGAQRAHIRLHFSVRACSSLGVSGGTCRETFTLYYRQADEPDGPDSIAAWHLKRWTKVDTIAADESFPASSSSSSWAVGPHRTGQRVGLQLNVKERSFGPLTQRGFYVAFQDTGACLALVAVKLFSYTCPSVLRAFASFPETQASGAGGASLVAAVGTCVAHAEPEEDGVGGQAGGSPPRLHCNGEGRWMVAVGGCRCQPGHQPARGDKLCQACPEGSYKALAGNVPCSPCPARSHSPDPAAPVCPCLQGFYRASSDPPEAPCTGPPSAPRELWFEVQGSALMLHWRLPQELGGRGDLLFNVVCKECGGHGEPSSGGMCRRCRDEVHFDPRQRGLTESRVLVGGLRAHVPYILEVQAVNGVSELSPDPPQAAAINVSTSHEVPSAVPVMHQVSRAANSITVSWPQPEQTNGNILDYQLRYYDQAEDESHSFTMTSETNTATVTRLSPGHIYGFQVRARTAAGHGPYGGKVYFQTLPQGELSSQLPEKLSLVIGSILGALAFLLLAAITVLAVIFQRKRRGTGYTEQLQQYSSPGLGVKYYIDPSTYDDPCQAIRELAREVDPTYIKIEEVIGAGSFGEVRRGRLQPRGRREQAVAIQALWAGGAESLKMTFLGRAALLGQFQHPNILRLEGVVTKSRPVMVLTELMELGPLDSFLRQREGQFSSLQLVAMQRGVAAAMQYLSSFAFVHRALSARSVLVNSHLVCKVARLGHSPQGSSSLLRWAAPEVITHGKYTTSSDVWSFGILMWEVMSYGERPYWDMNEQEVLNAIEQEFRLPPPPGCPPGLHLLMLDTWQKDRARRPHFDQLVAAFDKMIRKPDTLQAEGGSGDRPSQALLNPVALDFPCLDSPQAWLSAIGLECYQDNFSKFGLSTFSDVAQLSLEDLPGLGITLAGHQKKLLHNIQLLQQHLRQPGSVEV

HUVEC = test: Cytotoxicity against HUVEC cells upto 30 uM after 16 hrs by MTT assay; format: cell-based; details: human
Chorioallantoic membrane = test: Antiangiogenic activity in Leghorn chicken fertilized egg chorioallantoic membrane assessed as reduction in unstimulated neovascularization at 10 uM measured after 3 days by CAM assay; format: functional, tissue-based; details: Gallus gallus, time 3.0 day

Sequence of Ephrin type-A receptor 5 (P54757 whole entry): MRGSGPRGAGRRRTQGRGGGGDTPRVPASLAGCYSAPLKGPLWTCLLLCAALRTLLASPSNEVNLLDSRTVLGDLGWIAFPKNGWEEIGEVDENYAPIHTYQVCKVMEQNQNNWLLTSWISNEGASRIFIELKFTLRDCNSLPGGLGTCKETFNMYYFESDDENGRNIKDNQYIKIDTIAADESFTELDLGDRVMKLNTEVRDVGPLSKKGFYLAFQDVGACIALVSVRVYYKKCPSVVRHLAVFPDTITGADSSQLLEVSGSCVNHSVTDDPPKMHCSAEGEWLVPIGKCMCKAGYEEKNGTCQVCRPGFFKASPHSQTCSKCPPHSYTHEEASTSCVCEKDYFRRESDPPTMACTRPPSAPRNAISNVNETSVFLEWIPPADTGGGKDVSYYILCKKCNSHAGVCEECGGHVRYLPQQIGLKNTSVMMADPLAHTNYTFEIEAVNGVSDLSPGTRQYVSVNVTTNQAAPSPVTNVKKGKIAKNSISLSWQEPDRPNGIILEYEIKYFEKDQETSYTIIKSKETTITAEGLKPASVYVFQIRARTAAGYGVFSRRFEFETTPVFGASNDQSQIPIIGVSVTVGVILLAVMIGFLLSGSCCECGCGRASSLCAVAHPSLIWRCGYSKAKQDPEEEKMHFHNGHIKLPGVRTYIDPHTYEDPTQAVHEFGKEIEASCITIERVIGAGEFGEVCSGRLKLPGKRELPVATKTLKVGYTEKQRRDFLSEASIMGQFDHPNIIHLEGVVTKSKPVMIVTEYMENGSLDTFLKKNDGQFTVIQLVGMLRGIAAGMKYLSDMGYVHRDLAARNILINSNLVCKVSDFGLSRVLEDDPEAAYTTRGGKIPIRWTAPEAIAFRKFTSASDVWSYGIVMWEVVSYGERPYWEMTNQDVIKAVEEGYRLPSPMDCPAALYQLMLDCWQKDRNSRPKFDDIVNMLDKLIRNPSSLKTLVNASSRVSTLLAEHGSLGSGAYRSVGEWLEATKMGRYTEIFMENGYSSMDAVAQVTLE

IC50 (Ephrin type-A receptor 5): 4.4 µM | IC50 (Ephrin type-B receptor 2): 14 µM | IC50 (Ephrin type-B receptor 6): > 30 µM
Compound: CCNC(=O)O[C@@H]1CC[C@@]2(C)[C@H](CC[C@@H]3[C@@H]2CC[C@]2(C)[C@@H]([C@H](C)CCC(=O)N[C@H](CC(=O)O)Cc4c[nH]c5ccccc45)CC[C@@H]32)C1
Activity (HUVEC): Non-Toxic | Activity (Chorioallantoic membrane): inactive
